Laboratory results: patent US20250051347A1, “BIFUNCTIONAL CHIMERIC HETEROCYCLIC COMPOUND AND USE THEREOF AS ANDROGEN RECEPTOR DEGRADER” (Hinova Pharmaceuticals, Inc., priority 2021, published 2025)

Biological target: T1, androgen receptor (AR) splicing variant AR-v7 (Homo sapiens, UniProt P10275)
T1 construct: The degradation activity of compounds on AR-v7 in 22RV1 cells; host or cells: 22RV1 cells
T1 sequence (P10275 1-644 isoform P10275-3): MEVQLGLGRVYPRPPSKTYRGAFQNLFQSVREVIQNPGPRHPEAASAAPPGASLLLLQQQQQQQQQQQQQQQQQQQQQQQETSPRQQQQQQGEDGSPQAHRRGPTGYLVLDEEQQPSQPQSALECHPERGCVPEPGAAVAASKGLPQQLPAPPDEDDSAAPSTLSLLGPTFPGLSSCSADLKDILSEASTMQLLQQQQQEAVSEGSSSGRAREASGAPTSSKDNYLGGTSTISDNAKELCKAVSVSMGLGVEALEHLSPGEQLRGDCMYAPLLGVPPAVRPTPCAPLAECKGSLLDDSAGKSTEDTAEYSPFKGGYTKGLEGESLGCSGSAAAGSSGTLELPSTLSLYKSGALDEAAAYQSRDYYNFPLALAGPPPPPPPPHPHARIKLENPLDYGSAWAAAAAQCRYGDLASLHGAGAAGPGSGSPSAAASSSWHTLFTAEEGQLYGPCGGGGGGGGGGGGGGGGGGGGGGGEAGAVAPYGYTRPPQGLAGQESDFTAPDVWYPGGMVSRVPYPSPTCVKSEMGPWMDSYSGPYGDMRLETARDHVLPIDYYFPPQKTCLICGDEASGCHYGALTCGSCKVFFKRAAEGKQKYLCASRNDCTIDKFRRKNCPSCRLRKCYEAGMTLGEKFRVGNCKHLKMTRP
Experiment: Degradation activity on androgen receptor splicing variant AR-v7 in 22RV1 cells (ELISA)
Type: cell-based
Settings: AR-v7 degradation in 22RV1 cells, 48 h

`Cc1nc(-c2ccc(Oc3ccc(C(C)(C)c4ccc(OC5CC(Nc6ccc7c(c6)C(=O)N(C6CCC(=O)N(C)C6=O)C7=O)C5)cc4)cc3)nn2)no1` (centres unmarked) [Example 335, 5-((1r,3r)-3-(4-(2-(4-((6-(5-methyl-1,2,4-oxadiazol-3-yl)pyridazine-3-yl)oxy)phenyl)propan-2-yl)phenoxy)cyclobutyl)amino)-2-(1-methyl-2,6-dioxopiperidin-3-yl)isoindolin-1,3-dione] was tested, and the DC50 (class symbols) was 101 to 1000 nM.

`CC(C)(c1ccc(OCc2ccnc(N3CCC4(CC3)COC4)n2)cc1)c1ccc(OC2CC(Nc3ccc4c(c3)C(=O)N(C3CCC(=O)NC3=O)C4=O)C2)cc1` (centres unmarked) [Example 78, 5-((3-(4-(2-(4-((2-(2-oxa-7-azaspiro[3.5]nonan-7-yl)pyrimidin-4-yl)methoxy)phenyl)propan-2-yl)phenoxy)cyclobutyl)amino)-2-(2,6-dioxopiperidin-3-yl)isoindolin-1,3-dione] gave a DC50 (class symbols) of 11 to 100 nM.

For `CN1CCC(Oc2nccc(COc3ccc(C(C)(C)c4ccc(O[C@H]5C[C@@H](Nc6ccc7c(c6)C(=O)N(C6CCC(=O)NC6=O)C7=O)C5)cc4)cc3)n2)CC1` (some centres unmarked) [Example 234], the DC50 (class symbols) was 11 to 100 nM.

Molecule `CC(C)(c1ccc(OCC#Cc2ccc3c(c2)C(=O)N(C2CCC(=O)NC2=O)C3=O)cc1)c1ccc(OCc2ccnc(N3CC4(COC4)C3)n2)cc1` (centres unmarked) [Example 310] has a DC50 (class symbols) of 101 to 1000 nM.

Molecule `CC(O)c1ccc(Oc2ccc(C(C)(C)c3ccc(O[C@H]4C[C@@H](Nc5ccc6c(c5)C(=O)N(C5CCC(=O)NC5=O)C6=O)C4)cc3)cc2)cn1` (some centres unmarked) [Example 524] has a DC50 (class symbols) of 11 to 100 nM.

For `CN[C@H]1CCCN(c2nccc(COc3ccc(C(C)(C)c4ccc(O[C@H]5C[C@@H](Nc6ccc7c(c6)C(=O)N(C6CCC(=O)NC6=O)C7=O)C5)cc4)cc3)n2)C1` (some centres unmarked) [Example 403], the DC50 (class symbols) was 11 to 100 nM.

In the case of `CC(C)(c1ccc(OCCCCCCCCN2CC3(C2)CN(c2ccc4c(c2)C(=O)N(C2CCC(=O)NC2=O)C4=O)C3)cc1)c1ccc(OCc2ccnc(NS(C)(=O)=O)n2)cc1` (centres unmarked) [Example 30, N-(4-((4-(2-(4-((8-(6-(2-(2,6-dioxopiperidin-3-yl)-1,3-dioxoisoindolin-5-yl)-2,6-diazaspiro[3.3]heptan-2-yl)octyl)oxy)phenyl)propan-2-yl)phenoxy)methyl)pyrimidin-2-yl)methanesulfonamide], the DC50 (numeric values) is reported as over 10000 nM.

For `CC(C)(c1ccc(OCc2ccnc(N3CC4(COC4)C3)n2)cc1)c1ccc(OCC2CC(Nc3ccc4c(c3)C(=O)N(C3CCC(=O)NC3=O)C4=O)C2)cc1` (centres unmarked) [Example 112, 5-((3-((4-(2-(4-((2-(2-oxa-6-azaspiro[3.3]heptan-6-yl)pyrimidin-4-yl)methoxy)phenyl)propan-2-yl)phenoxy)methyl)cyclobutyl)amino)-2-(2,6-dioxopiperidin-3-yl)isoindolin-1,3-dione], the DC50 (class symbols) was 11 to 100 nM.

Molecule `Cc1nc(-c2ncc(Oc3ccc(C(C)(C)c4ccc(OC[C@@H]5CCN5c5ccc6c(c5)C(=O)N(C5CCC(=O)NC5=O)C6=O)cc4)cc3)cn2)no1` (stereo partly drawn) [Example 326, 2-(2,6-dioxopiperidin-3-yl)-5-((S)-2-((4-(2-(4-((2-(5-methyl-1,2,4-oxadiazol-3-yl)pyrimidin-5-yl)oxy)phenyl)propan-2-yl)phenoxy)methyl)azetidin-1-yl)isoindolin-1,3-dione] has a DC50 (class symbols) of 11 to 100 nM.

Molecule `CC(=O)c1cc(COc2ccc(C(C)(C)c3ccc(OCCCCCCCCOCCCCNc4cccc5c4C(=O)N(C4CCC(=O)NC4=O)C5=O)cc3)cc2)ccn1` (centres unmarked) [Example 348, 4-((4-((8-(4-(2-(4-((2-acetylpyridin-4-yl)methoxy)phenyl)isopropan-2-yl)phenoxy)octyl)oxy)butyl)amino)-2-(2,6-dioxopiperidin-3-yl)isoindolin-1,3-dione] has a DC50 (class symbols) of 1000 to 5000 nM.

In the case of `CC(=O)c1nccc(COc2ccc(C(C)(C)c3ccc(OCC4CCCN(c5ccc6c(c5)C(=O)N(C5CCC(=O)NC5=O)C6=O)C4)cc3)cc2)n1` (centres unmarked) [Example 304, 5-(3-((4-(2-(4-((2-acetylpyrimidin-4-yl)methoxy)phenyl)propan-2-yl)phenoxy)methyl)piperidin-1-yl)-2-(2,6-dioxopiperidin-3-yl)isoindolin-1,3-dione], the DC50 (numeric values) is reported as over 2500 nM.
